Test results published in US20230203098A1, “HUMAN TRANSFERRIN RECEPTOR BINDING PEPTIDE” (priority 2020, published 2023).
pKd: −log10 of the molar value. Read-outs that look alike come from different tables or passages of the source. Where a SMILES comes first, the peptide text is derived from it. Bridges are numbered along the chain shown (N, C = ends). [ ]: non-standard residue; d: D form. The star is where a group is joined. X2 = O=C(O)c1cc(C(=O)*)ccc1-c1c2ccc(=O)cc-2oc2cc(O)ccc12; PEG12 = NCCOCCOCCOCCOCCOCCOCCOCCOCCOCCOCCOCCOCCC(=O)O; NMePhe(3-Cl) = CN[C@@H](Cc1cccc(Cl)c1)C(=O)O; NMeW = CN[C@@H](Cc1c[nH]c2ccccc12)C(=O)O; NMeY = CN[C@@H](Cc1ccc(O)cc1)C(=O)O; PEG4 = NCCOCCOCCOCCOCCC(=O)O; Nle = CCCC[C@H](N)C(=O)O; Dab = NCC[C@H](N)C(=O)O; Nva = CCC[C@H](N)C(=O)O

Target: transferrin receptor (hTfR) (Homo sapiens, UniProt P02786)
Assay: Intermolecular interaction evaluation test between transferrin receptor (hTfR) and peptide by surface plasmon resonance (SPR)
Type: binding
Method in brief: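 Receptor was Ni-captured and EDC/NHS-fixed on an NTA chip; running buffer HEPES pH 8.0 with NaCl, Tween 20, BSA and 1.0% DMSO.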

[1] = surface plasmon resonance, hTfR, read-out: KD value for hTfR by SPR (class symbol)
[2] = surface plasmon resonance, peptide vs hTfR, read-out: KD value for hTfR by SPR (class symbol)
[3] = SPR, linker and payload (FITC, VivoTag) conjugates, read-out: KD
[4] = SPR, peptides, linker-added peptides and FITC conjugates, Patent ID 203-230, read-out: KD

Chain of transferrin receptor (hTfR) (P02786 whole entry): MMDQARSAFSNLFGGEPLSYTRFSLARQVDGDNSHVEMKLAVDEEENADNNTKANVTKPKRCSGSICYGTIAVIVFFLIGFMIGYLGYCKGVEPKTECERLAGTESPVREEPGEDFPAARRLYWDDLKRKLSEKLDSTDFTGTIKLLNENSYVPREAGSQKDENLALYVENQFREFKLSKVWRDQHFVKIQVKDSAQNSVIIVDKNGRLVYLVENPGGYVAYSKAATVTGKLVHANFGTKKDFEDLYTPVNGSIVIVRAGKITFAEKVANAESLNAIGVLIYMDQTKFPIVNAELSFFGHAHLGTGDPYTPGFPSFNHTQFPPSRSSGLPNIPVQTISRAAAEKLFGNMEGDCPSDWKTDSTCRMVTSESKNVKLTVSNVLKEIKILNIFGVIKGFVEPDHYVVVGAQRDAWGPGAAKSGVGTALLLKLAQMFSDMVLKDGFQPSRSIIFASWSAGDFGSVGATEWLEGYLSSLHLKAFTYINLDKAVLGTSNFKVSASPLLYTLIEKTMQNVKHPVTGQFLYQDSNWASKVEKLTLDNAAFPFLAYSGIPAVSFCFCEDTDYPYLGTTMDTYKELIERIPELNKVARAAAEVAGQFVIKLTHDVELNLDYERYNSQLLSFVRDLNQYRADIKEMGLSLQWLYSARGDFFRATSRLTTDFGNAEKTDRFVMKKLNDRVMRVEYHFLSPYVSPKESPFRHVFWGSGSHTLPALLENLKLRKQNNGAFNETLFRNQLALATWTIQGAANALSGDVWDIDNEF

## CC[C@H](C)[C@@H]1NC(=O)[C@H](Cc2ccc(OC)cc2)NC(=O)[C@H](Cc2ccc(O)cc2)NC(=O)[C@H](CC(N)=O)NC(=O)[C@H](Cc2c[nH]c3ccccc23)N(C)C(=O)[C@H](C(C)C)NC(=O)[C@H](Cc2cccc(Cl)c2)N(C)C(=O)[C@H](C(C)C)NC(=O)[C@H](C)NC(=O)CSC[C@@H](C(N)=O)NC(=O)[C@H](Cc2ccc(O)cc2)N(C)C(=O)[C@H](Cc2ccccc2)NC(=O)[C@H](CCCNC(=N)N)NC(=O)C(C)(CCCCN)NC(=O)[C@H]([C@@H](C)CC)NC1=O (some centres unmarked) [compound 379]
[1]
  pKd: 7.00 to 9.00

## CC[C@H](C)[C@@H]1NC(=O)[C@H](Cc2ccc(O)cc2)NC(=O)[C@H](Cc2ccc(O)cc2)NC(=O)[C@H](CC(N)=O)NC(=O)[C@H](Cc2c[nH]c3ccccc23)NC(=O)[C@H](C(C)C)NC(=O)[C@H](Cc2ccccc2)N(C)C(=O)[C@H](C(C)C)NC(=O)[C@H](C)NC(=O)CSC[C@@H](C(=O)NCC(=O)NCC(=O)NCC(=O)NCC(=O)N[C@@H](CO)C(=O)N[C@@H](CO)C(=O)N[C@@H](CSCC(=O)NC)C(N)=O)NC(=O)[C@H](Cc2ccc(O)cc2)N(C)C(=O)[C@H](Cc2ccc(O)cc2)NC(=O)[C@H](CCCNC(=N)N)NC(=O)[C@H](CCCNC(=N)N)NC(=O)[C@H]([C@@H](C)CC)NC1=O [compound 443]
[2]
  pKd: 7.00 to 9.00

## CC[C@H](C)[C@@H]1NC(=O)[C@H](Cc2ccc(O)cc2)NC(=O)[C@H](Cc2ccc(O)cc2)NC(=O)[C@H](CC(N)=O)NC(=O)[C@H](Cc2c[nH]c3ccccc23)N(C)C(=O)[C@H](C(C)C)NC(=O)[C@H](Cc2ccccc2)NC(=O)[C@H](C(C)C)NC(=O)[C@H](C)NC(=O)CSC[C@@H](C(=O)NCCOCCOCCOCCOCCC(=O)N[C@@H](CNC(=O)c2ccc(-c3c4ccc(=O)cc-4oc4cc(O)ccc34)c(C(=O)O)c2)C(N)=O)NC(=O)[C@H](Cc2ccc(O)cc2)N(C)C(=O)[C@H](Cc2ccc(O)cc2)NC(=O)[C@H](CCCNC(=N)N)NC(=O)[C@H](CCCNC(=N)N)NC(=O)[C@H]([C@@H](C)CC)NC1=O [compound 163]
[3]
  pKd: 7.00 to 9.00

## CC[C@H](C)[C@@H]1NC(=O)[C@H](Cc2ccc(OC)cc2)NC(=O)[C@H](Cc2ccc(O)cc2)NC(=O)[C@H](CC(N)=O)NC(=O)[C@H](Cc2c[nH]c3ccccc23)N(C)C(=O)[C@H](C(C)C)NC(=O)[C@H](Cc2cccc(Cl)c2)N(C)C(=O)[C@H](C(C)C)NC(=O)[C@H](C)NC(=O)CSC[C@@H](C(=O)NCCOCCOCCOCCOCCC(N)=O)NC(=O)[C@H](Cc2ccc(O)cc2)N(C)C(=O)[C@H](Cc2ccccc2)NC(=O)[C@@H](CCCNC(=N)N)NC(=O)[C@H](CCN)NC(=O)[C@H]([C@@H](C)CC)NC1=O [compound 366] ({CH2CO}-AV[NMePhe(3-Cl)]V[NMeW]NYY(Me)II[Dab][dR]F[NMeY]C[PEG4]-NH2; thioether N-15)
[1]
  pKd: 7.00 to 9.00

## CC[C@H](C)[C@@H]1NC(=O)[C@H](CCCNC(=N)N)NC(=O)[C@H](CC(N)=O)NC(=O)[C@H](C)NC(=O)CSC[C@@H](C(=O)NCCOCCOCCOCCOCCOCCOCCOCCOCCOCCOCCOCCOCCC(=O)N[C@@H](CCCCNC(=O)c2ccc(-c3c4ccc(=O)cc-4oc4cc(O)ccc34)c(C(=O)O)c2)C(N)=O)NC(=O)[C@H](Cc2ccc(O)cc2)N(C)C(=O)[C@H](CCCNC(=N)N)NC(=O)[C@@H]2CCCN2C(=O)[C@H]([C@@H](C)CC)NC(=O)[C@H]([C@@H](C)CC)NC(=O)[C@H](Cc2ccc(O)cc2)NC(=O)[C@H](Cc2ccc(O)cc2)NC(=O)[C@H](CC(N)=O)NC(=O)[C@H](Cc2c[nH]c3ccccc23)NC(=O)[C@H](C(C)C)NC(=O)[C@H](Cc2ccccc2)NC(=O)[C@H](C(C)C)NC1=O [compound 153] ({CH2CO}-ANRIVFVWNYYIIPR[NMeY]C[PEG12]K(X2)-NH2; thioether N-17)
[3]
  pKd: 7.00 to 9.00

## CC[C@H](C)[C@@H]1NC(=O)[C@H](Cc2ccc(O)cc2)NC(=O)[C@H](Cc2ccc(O)cc2)NC(=O)[C@H](CC(N)=O)NC(=O)[C@H](Cc2c[nH]c3ccccc23)NC(=O)[C@H](C(C)C)NC(=O)[C@H](Cc2ccccc2)N(C)C(=O)[C@H](C(C)C)NC(=O)[C@H](C)NC(=O)CSC[C@@H](C(=O)NCC(=O)N[C@H](CCC(=O)O)C(=O)N[C@H](CCC(=O)O)C(=O)NCC(=O)N[C@@H](CO)C(=O)N[C@@H](CO)C(=O)N[C@@H](CSCC(=O)NC)C(N)=O)NC(=O)[C@H](Cc2ccc(O)cc2)N(C)C(=O)[C@H](Cc2ccc(O)cc2)NC(=O)[C@H](CCCNC(=N)N)NC(=O)[C@H](CCCNC(=N)N)NC(=O)[C@H]([C@@H](C)CC)NC1=O [compound 425]
[2]
  pKd: 7.00 to 9.00

## CCCC[C@@H]1NC(=O)[C@H]([C@@H](C)CC)NC(=O)[C@H](Cc2ccc(OC)cc2)NC(=O)[C@H](Cc2ccc(O)cc2)NC(=O)[C@H](CC(N)=O)NC(=O)[C@H](Cc2c[nH]c3ccccc23)N(C)C(=O)[C@H](C(C)C)NC(=O)[C@H](Cc2cccc(Cl)c2)N(C)C(=O)[C@H](C(C)C)NC(=O)[C@H](C)NC(=O)CSC[C@@H](C(=O)NCCOCCOCCOCCOCCC(N)=O)NC(=O)[C@H](Cc2ccc(O)cc2)N(C)C(=O)[C@H](Cc2ccccc2)NC(=O)[C@@H](CCCNC(=N)N)NC(=O)[C@H](CCCNC(=N)N)NC1=O [compound 334] ({CH2CO}-AV[NMePhe(3-Cl)]V[NMeW]NYY(Me)I[Nle]R[dR]F[NMeY]C[PEG4]-NH2; thioether N-15)
Surface plasmon resonance, peptide vs hTfR, read-out: KD value, hTfR binding by SPR (class symbol)
  pKd: 7.00 to 9.00

## CCC[C@@H]1NC(=O)[C@H]([C@@H](C)CC)NC(=O)[C@H]([C@@H](C)CC)NC(=O)[C@H](Cc2ccc(OC)cc2)NC(=O)[C@H](Cc2ccc(O)cc2)NC(=O)[C@H](CC(N)=O)NC(=O)[C@H](Cc2c[nH]c3ccccc23)N(C)C(=O)[C@H](C(C)C)NC(=O)[C@H](Cc2cccc(Cl)c2)N(C)C(=O)[C@H](C(C)C)NC(=O)[C@H](C)NC(=O)CSC[C@@H](C(=O)NCCOCCOCCOCCOCCC(N)=O)NC(=O)[C@H](Cc2ccc(O)cc2)N(C)C(=O)[C@H](Cc2ccccc2)NC(=O)[C@@H](CCCNC(=N)N)NC1=O [compound 360] ({CH2CO}-AV[NMePhe(3-Cl)]V[NMeW]NYY(Me)II[Nva][dR]F[NMeY]C[PEG4]-NH2; thioether N-15)
[1]
  pKd: 7.00 to 9.00

## CC[C@H](C)[C@@H]1NC(=O)[C@H](Cc2ccc(O)cc2)NC(=O)[C@H](Cc2ccc(O)cc2)NC(=O)[C@H](CC(N)=O)NC(=O)[C@H](CCc2ccccc2)NC(=O)[C@H](C(C)C)NC(=O)[C@H](Cc2ccccc2)N(C)C(=O)[C@H](C(C)C)NC(=O)[C@H](C)NC(=O)CSC[C@@H](C(=O)NCCOCCOCCOCCOCCOCCOCCOCCOCCOCCOCCOCCOCCC(N)=O)NC(=O)[C@H](Cc2ccc(O)cc2)N(C)C(=O)[C@H](Cc2ccc(O)cc2)NC(=O)[C@H](CCCNC(=N)N)NC(=O)[C@H](CCCNC(=N)N)NC(=O)[C@H]([C@@H](C)CC)NC1=O [compound 128]
SPR, hTfR No. 894 variants with PEG12c linker (Table 2), read-out: KD
  pKd: 7.00 to 9.00

## CC[C@H](C)[C@@H]1NC(=O)[C@H](Cc2ccc(OC)cc2)NC(=O)[C@H](Cc2ccc(O)cc2)NC(=O)[C@H](CC(N)=O)NC(=O)[C@H](Cc2c[nH]c3ccccc23)N(C)C(=O)[C@H](C(C)C)NC(=O)[C@H](Cc2cccc(Cl)c2)N(C)C(=O)[C@H](C(C)C)NC(=O)[C@H](C)NC(=O)CSC[C@@H](C(=O)N[C@H](CCC(=O)O)C(N)=O)NC(=O)[C@H](Cc2ccc(O)cc2)N(C)C(=O)[C@H](Cc2ccccc2)NC(=O)[C@@H](CCCNC(=N)N)NC(=O)C(C)(C)NC(=O)[C@H]([C@@H](C)CC)NC1=O [compound 355]
[1]
  pKd: 6.00 to 7.00

## CC[C@H](C)[C@@H]1NC(=O)[C@H](Cc2ccc(O)cc2)NC(=O)[C@H](Cc2ccc(O)cc2)NC(=O)[C@H](CC(N)=O)NC(=O)[C@H](Cc2c[nH]c3ccccc23)NC(=O)[C@H](C(C)C)NC(=O)[C@H](Cc2ccccc2)N(C)C(=O)[C@H](C(C)C)NC(=O)[C@H](C)NC(=O)CSC[C@@H](C(=O)NCC(=O)NCC(=O)N[C@@H](CO)C(=O)N[C@@H](CO)C(=O)N[C@@H](CCCCNC(=O)C2CCC(CN3C(=O)C=CC3=O)CC2)C(N)=O)NC(=O)[C@H](Cc2ccc(O)cc2)N(C)C(=O)[C@H](Cc2ccc(O)cc2)NC(=O)[C@H](CCCNC(=N)N)NC(=O)[C@H](CCCNC(=N)N)NC(=O)[C@H]([C@@H](C)CC)NC1=O (some centres unmarked) [compound 193]
hTfR binding by SPR, hTfR No. 894 variant peptides, linker-added peptides and payload conjugates (Table 2), read-out: KD value obtained from the SPR measurement
  pKd: 7.00 to 9.00

## CC[C@H](C)[C@@H]1NC(=O)[C@H](Cc2ccc(O)cc2)NC(=O)[C@H](Cc2ccc(O)cc2)NC(=O)[C@H](CC(N)=O)NC(=O)[C@H](Cc2c[nH]c3ccccc23)NC(=O)[C@H](C(C)C)NC(=O)[C@H](Cc2ccccc2)NC(=O)[C@H](C(C)C)NC(=O)[C@H](C)NC(=O)CSC[C@@H](C(=O)NCCOCCOCCOCCOCCOCCOCCOCCOCCOCCOCCOCCOCCC(=O)N[C@@H](CCCCNC(=O)c2ccc(-c3c4ccc(=O)cc-4oc4cc(O)ccc34)c(C(=O)O)c2)C(N)=O)NC(=O)[C@H](CCC(=O)O)NC(=O)[C@H](CCCNC(=N)N)NC(=O)[C@@H]2CCCN2C(=O)[C@H](C(C)C)NC1=O [compound 211] ({CH2CO}-AVFVWNYYIVPREC[PEG12]K(X2)-NH2; thioether N-14)
[4]
  pKd: 7.00 to 9.00

## CC[C@H](C)[C@@H]1NC(=O)[C@H](Cc2ccc(OC)cc2)NC(=O)[C@H](Cc2ccc(O)cc2)NC(=O)[C@H](CC(N)=O)NC(=O)[C@H](Cc2c[nH]c3ccccc23)N(C)C(=O)[C@H](C(C)C)NC(=O)[C@H](Cc2cccc(Cl)c2)N(C)C(=O)[C@H](C(C)C)NC(=O)[C@H](C)N(C)C(=O)CSC[C@@H](C(N)=O)NC(=O)[C@H](Cc2ccc(O)cc2)N(C)C(=O)[C@H](Cc2ccccc2)NC(=O)[C@@H](C)NC(=O)[C@H](CCCNC(=N)N)NC(=O)[C@H]([C@@H](C)CC)NC1=O [compound 216]
[4]
  pKd: < 6.00

## CC[C@H](C)[C@@H]1NC(=O)[C@H](Cc2ccc(OC)cc2)NC(=O)[C@H](Cc2ccc(O)cc2)NC(=O)[C@H](CC(N)=O)NC(=O)[C@H](Cc2c[nH]c3ccccc23)N(C)C(=O)[C@H](C(C)C)NC(=O)[C@H](Cc2cccc(Cl)c2)N(C)C(=O)[C@H](C(C)C)NC(=O)[C@H](C)NC(=O)CSC[C@@H](C(N)=O)NC(=O)[C@H](Cc2ccc(O)cc2)N(C)C(=O)[C@H](CCC(=O)NCCCC[C@@H](NC)C(=O)O)NC(=O)[C@@H](CCCNC(=N)N)NC(=O)[C@H](CCCNC(=N)N)NC(=O)[C@H]([C@@H](C)CC)NC1=O [compound 390]
[1]
  pKd: 7.00 to 9.00
